Assay results: ChEMBL document CHEMBL1136667, “Inhibitors of Abeta production: solid-phase synthesis and SAR of alpha-hydroxycarbonyl derivatives” (Bioorg Med Chem Lett, 2003)

Target: Gamma-secretase
Test: Inhibition of amyloid beta protein production in transfected H4 (neuroglioma) cells expressing […] constructs.
Type: functional, cell-based, Homo sapiens

| SMILES | IC50 |
| --- | --- |
| CC(C)C[C@H](NC(=O)Cc1cc(F)cc(F)c1)C(=O)N[C@@H](CC1CCCCC1)[C@@H](O)C(=O)Cc1ccccc1 | 0.16 µM |
| CC(C)CCC(=O)N[C@@H](CC(C)C)C(=O)N[C@@H](CC1CCCCC1)[C@@H](O)C(=O)C(C)C | 0.55 µM |
| CCOC(=O)[C@H](O)[C@H](CC1CCCCC1)NC(=O)[C@H](CC(C)C)NC(=O)Cc1ccc(F)cc1 | 1.8 µM |
| CCOC(=O)[C@H](O)[C@H](CC1CCCCC1)NC(=O)[C@H](CC(C)C)NC(=O)Cc1ccccc1 | 1.6 µM |
| CCOC(=O)[C@H](O)[C@H](CC1CCCCC1)NC(=O)[C@@H](NC(=O)Cc1ccccc1)C(C)C | 3.4 µM |
| CC(C)CCC(=O)N[C@@H](CC(C)C)C(=O)N[C@@H](CC1CCCCC1)[C@@H](O)C(=O)Cc1ccccc1 | 0.3 µM |
| CC(C)C[C@H](NC(=O)Cc1ccccc1)C(=O)N[C@@H](CC1CCCCC1)[C@@H](O)C(=O)c1ccccc1 | 0.9 µM |
| CCCC(=O)[C@H](O)[C@H](CC1CCCCC1)NC(=O)[C@H](CC(C)C)NC(=O)CCC(C)C | 0.58 µM |
| CC(C)CCC(=O)N[C@@H](CC(C)C)C(=O)N[C@@H](CC1CCCCC1)[C@@H](O)C(=O)c1ccccc1 | 4.5 µM |
| CC(C)C[C@H](NC(=O)Cc1ccccc1)C(=O)N[C@@H](CC1CCCCC1)[C@@H](O)C(=O)Cc1ccccc1 | 0.4 µM |
| CCOC(=O)[C@H](O)[C@H](CC1CCCCC1)NC(=O)[C@@H](NC(=O)c1ccccc1)C(C)C | > 25 µM |
| CC(C)C[C@H](NC(=O)Cc1cccc(F)c1)C(=O)N[C@@H](CC1CCCCC1)[C@@H](O)C(=O)Cc1ccccc1 | 0.4 µM |
| CCOC(=O)[C@H](O)[C@H](CC1CCCCC1)NC(=O)[C@H](NC(=O)Cc1ccccc1)C(C)C | > 25 µM |
| CCCC(=O)[C@H](O)[C@H](CC1CCCCC1)NC(=O)[C@H](CC(C)C)NC(=O)Cc1ccccc1 | 0.6 µM |
| CC(=O)[C@H](O)[C@H](CC1CCCCC1)NC(=O)[C@H](CC(C)C)NC(=O)Cc1cc(F)cc(F)c1 | 0.18 µM |
| CC(C)C[C@H](NC(=O)Cc1ccccc1)C(=O)N[C@@H](CC1CCCCC1)[C@@H](O)C(=O)O | 15 µM |
| CCOC(=O)[C@H](O)[C@H](CC1CCCCC1)NC(=O)[C@H](Cc1ccccc1)NC(=O)Cc1ccccc1 | 15 µM |

Second part, the compound after the results:

| IC50 | SMILES |
| --- | --- |
| > 25 µM | CCOC(=O)[C@H](O)[C@H](CC1CCCCC1)NC(=O)[C@@H](NC(=O)C1(c2ccccc2)CC1)C(C)C |
| 5 µM | CCOC(=O)[C@H](O)[C@H](CC1CCCCC1)NC(=O)[C@@H](NC(=O)/C=C/c1ccccc1)C(C)C |
| 0.9 µM | CC(=O)[C@H](O)[C@H](CC1CCCCC1)NC(=O)[C@H](CC(C)C)NC(=O)Cc1ccccc1 |
| 0.45 µM | CCOC(=O)[C@H](O)[C@H](CC1CCCCC1)NC(=O)[C@H](CC(C)C)NC(=O)Cc1cc(F)cc(F)c1 |
| 1.5 µM | CCOC(=O)[C@H](O)[C@H](CC1CCCCC1)NC(=O)[C@H](CC(C)C)NC(=O)CCC(C)C |
| 0.62 µM | CC(=O)[C@H](O)[C@H](CC1CCCCC1)NC(=O)[C@H](CC(C)C)NC(=O)CCC(C)C |
| 3.3 µM | CCOC(=O)[C@H](O)[C@H](CC1CCCCC1)NC(=O)[C@@H](NC(=O)C(=O)c1ccccc1)C(C)C |
| 17 µM | CCOC(=O)[C@H](O)[C@H](CC1CCCCC1)NC(=O)[C@@H](NC(=O)Cc1ccccc1F)C(C)C |
| 0.92 µM | CCOC(=O)[C@H](O)[C@H](CC1CCCCC1)NC(=O)[C@H](CC(C)C)NC(=O)Cc1cccc(F)c1 |
